Test results taken from patent publication US7199113B2, “Pharmaceutically active compounds and methods of use thereof” (priority 1998, dated 2007).
Like-named read-outs stand apart in the source and are kept apart here.

What was measured:
[1] = target: T1, human recombinant TF/VIIa complex (lipidated) (Homo sapiens, UniProt P13726); test: TF/VIIa-dependent FX activation assay; type: biochemical; conditions: for outcome of primary and secondary screening (TF antagonism): inhibit FX activation at lower concentrations (<0.1 mM) without significant effects on protease activities; for blocking activity in standard assay for TF/VIIa-dependent factor X activation: statement on FIG. 3
T1 construct: Truncated recombinant human tissue factor (e.g. composed of 243 amino acids) is expressed in E. coli; host or cells: E. coli (TF)
Method: A more particular example of the primary screening assay discussed previously is as follows. The assay is standard for measuring TF/VIIa-dependent factor X activation. […] In a more preferred embodiment, the primary screening preferably includes the following steps. • 1) admixing in a suitable assay solution about 0.1 nM of human recombinant TF/VIIa complex (lipidated), about 180 nM human FX, and between from about 0.5 μl to about 10 μl of at least one compound to be tested (optionally dissolved in an appropriate vehicle such as water or dimethylsulfoxide (DMSO)) and incubating the reaction at 37° C. for a few minutes up to about an hour or more, • 2) contacting the solution with a suitable chelating agent such as ethylenediaminietetra acetic acid (EDTA) to reduce or stop factor X activation, • 3) contacting the solution with a detectable amount of a chromogenic substrate specific for FXa (e.g., Spectrozyme FXa or S-2765) and incubating same at 37° C.; and • 4) detecting chromophore produced in the solution as being indicative of the factor X activation.
The primary screening for compounds that inhibit tissue factor/factor VIIa (TF/VIIa) is based on TF/VIIa-dependent FX activation assay (See flow chart in FIG. 1 of the drawings). In this assay, the ability of TF/VIIa complex to activate FX is determined in two discontinuous stages. […] In the second stage (FXa activity assay), EDTA is added at indicated times to the FX activation mixture to chelate calcium, thus leading to the termination of FX→FXa conversion. Calcium is required for TF/VIIa activity. The activity of FXa is then measured by FXa-specific chromogenic substrates such as S-2222, S-2765, or Spectrozyme FXa. In the primary screening, compounds from a previously prepared chemical library are first tested at relatively high concentrations (˜0.833 mM) in TF/VIIa-dependent FX activation assay to identify hits of potential TF pathway antagonists (see FIG. 1). However, it is evident that the inhibition of TF/VIIa-dependent FX activation by a compound in this enzyme-coupled assay can be attributed to effects of the compound on TF/VIIa and/or FXa activities. Thus, secondary screening tests are designed to determine how inhibition takes place and the inhibition mechanism. In secondary screening experiments, effects of those compounds identified from primary screening are tested on catalytic activities of factor VIIa (FVIIa), factor IXa (FIXa), factor Xa (FXa), thrombin, Russell's viper venom (RVV), and trypsin.
Primary screening was done in duplicate in 96-well plates using the TF/VIIa-dependent FX activation assay. All compounds to be screened were dissolved in dimethyl sulfoxide (DMSO), other reagents were prepared or diluted in 25 mM HEPES-NaOH, 5 mM CaCl2, 150 mM NaCl, 0.1% BSA, pH 7.5. For assays where TF was used, purified human recombinant TF (100 nM) was first lipidated with phosphatidylcholine (0.07 mg/ml) and phosphatidylserine (0.03 mg/ml) in 50 mM Tris-HCl, pH 7.5, 0.1% bovine serum albumin (BSA) for 30 minutes at 37° C. A stock solution of TF/VIIa complex was then prepared by combining equal volumes of 100 nM lipidated TF and 100 nM FVIIa The complex was incubated at 37° C. for 30 minutes and then was aliquoted and stored at −70° C. for future uses.
For screening assays, 5 μl of each compound (about 10 mM in DMSO) or DMSO were placed in each well of a 96-well plate, followed by adding 45 μl of TF/VIIa complex (0.1 nM). The components in each well were mixed either with pipette tips or by shaking the plate on a Lab-Line titer plate shaker for 30 seconds. After 15 minutes incubation of the plate at a 37° C., 10 μl of human FX (180 nM) was added to each well and mixed as above. The plate was then incubated at 37° C. for 3 to 15 minutes, followed by addition of 10 μl of EDTA (400 mM in 144 mM HEPES, 864 mM NaCl, 0.576% BSA, pH adjusted to 7.5) to each well to terminate FX activation. […]

[2] = target: T2, FIXa (Homo sapiens, UniProt P00740); test: FIXa-dependent FX activation assay; type: biochemical; conditions: statement on Table 2 (FIG. 2(b))
T2 construct: FIX was first converted to FIXa by TF/VIIa in the absence of compound; purchased Enzyme Research Laboratories Inc
Method: FIX was first converted to FIXa by TF/VIIa in the absence of compound. This was done in a 50-ml tube. After incubating TF/VIIa (0.67 nM, 10 ml) at 37° C. for 15 minutes, FIX (300 nM, 0.123 ml) was added and incubated at 37° C. for 30 minutes. Then 1.54 ml of EDTA (400 mM) was added to stop the FIX activation. Then 65 μl of the above FIXa sample was transferred into wells of a 96-well plate that contain 5 μl of diluted DMSO (or buffer) or compound (in diluted DMSO or buffer). Ten μl of FX (1000 nM), 10 μl of polylysine (300 nM), and 10 μl of Spectrozyme FXa (5 mM) were added to each well and incubate at 37° C. until an OD405 nm value of ˜0.8 was reached. Absorbance at 405 nm was then measured following addition of 20 μl of 50% acetic acid. The percent inhibition of FIXa activity was calculated from OD405 nm values in the absence and presence of a compound.

[3] = titration, data of Table 3 (FIG. 2(c)), primary screening method, read-out: IC50 (inhibitor concentration at which 50% of TF/VIIa-dependent FX activation is inhibited)

T1 sequence (P13726 33-275 limits assumed): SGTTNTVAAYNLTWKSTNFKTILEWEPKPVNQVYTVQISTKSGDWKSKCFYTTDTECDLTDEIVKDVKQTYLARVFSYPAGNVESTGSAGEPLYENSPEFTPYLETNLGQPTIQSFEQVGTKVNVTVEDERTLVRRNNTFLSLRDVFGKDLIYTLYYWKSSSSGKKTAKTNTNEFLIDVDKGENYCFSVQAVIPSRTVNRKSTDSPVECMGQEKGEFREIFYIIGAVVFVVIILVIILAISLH
T1 sequence (P08709 61-212 partner limits assumed): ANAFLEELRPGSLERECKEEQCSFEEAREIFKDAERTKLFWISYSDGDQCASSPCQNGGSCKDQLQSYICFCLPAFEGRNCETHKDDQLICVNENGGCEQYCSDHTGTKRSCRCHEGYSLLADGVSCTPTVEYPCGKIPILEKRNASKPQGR
T1 sequence (P08709 213-466 partner limits assumed): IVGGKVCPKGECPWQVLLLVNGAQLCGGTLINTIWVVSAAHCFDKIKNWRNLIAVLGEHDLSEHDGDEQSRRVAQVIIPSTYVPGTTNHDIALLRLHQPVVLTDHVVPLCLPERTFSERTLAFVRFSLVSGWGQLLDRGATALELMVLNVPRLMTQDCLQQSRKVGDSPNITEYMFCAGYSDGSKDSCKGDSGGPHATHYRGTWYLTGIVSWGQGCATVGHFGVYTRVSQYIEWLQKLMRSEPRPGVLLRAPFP
T2 sequence (P00740 227-461 limits assumed): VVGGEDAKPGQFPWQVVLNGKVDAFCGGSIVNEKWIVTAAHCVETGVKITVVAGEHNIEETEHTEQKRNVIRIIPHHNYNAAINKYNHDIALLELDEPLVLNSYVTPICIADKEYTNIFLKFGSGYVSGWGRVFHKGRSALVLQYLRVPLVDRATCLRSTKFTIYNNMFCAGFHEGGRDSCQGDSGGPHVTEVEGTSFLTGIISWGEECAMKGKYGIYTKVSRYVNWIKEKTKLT
T2 sequence (P00740 47-191 limits assumed): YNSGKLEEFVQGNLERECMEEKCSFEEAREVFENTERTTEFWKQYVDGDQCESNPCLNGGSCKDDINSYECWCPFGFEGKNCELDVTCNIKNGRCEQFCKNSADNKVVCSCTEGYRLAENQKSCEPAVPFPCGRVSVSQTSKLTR

Compound | IC50 ([1]; compound preincubated with TF/VIIa 15 minutes at 37° C. prior to FX, FX 30 nM, read-out: IC50, TF/VIIa-dependent FX activation) [µM] | outcome of primary and secondary screening (TF antagonism) [1] | effect on apparent Km values for FX substrate ([1]; kinetic analysis, FIG. 5) | mode of inhibition of TF/VIIa complex ([1]; kinetic analysis, FIG. 5) | blocking activity in standard assay for TF/VIIa-dependent factor X activation [1] | IC50 [1, 3] [µM] | inhibition of FIXa activity (FIXa-dependent FX activation) [2]
O=P(O)(O)C(CNc1cccc(O)c1)P(=O)(O)O [Compound 1, 1-(bisphosponate)-2-amino(3-hydroxyphenyl)ethyl] | 12.5 | strong TF antagonists | significantly increased | competitive inhibitor | good blocking activity | 19 | do not inhibit FIXa activity
O=P(O)(O)C(CNc1ccc(O)cc1)P(=O)(O)O [Compound 2] | – | strong TF antagonists | – | – | good blocking activity | 9.7 | do not inhibit FIXa activity
